IC50 data for 2 compounds are collected here from ChEMBL document CHEMBL1201862, “PubChem BioAssay data set” (2004).

The source made the active and inactive calls. Rule as the data show it: actives have a measured IC50 and inactives only a lower limit.

The target of this assay is Envelope glycoprotein gp160 (Human immunodeficiency virus 1, UniProt Q6QLK5). Put plainly: cell-free HIV fusion peptide-binding blockers – biochemical, uHTS, fluorescence dequenching, […] (AID 1986).
Chain of Envelope glycoprotein gp160 (Q6QLK5 whole entry, the tested form may be a part): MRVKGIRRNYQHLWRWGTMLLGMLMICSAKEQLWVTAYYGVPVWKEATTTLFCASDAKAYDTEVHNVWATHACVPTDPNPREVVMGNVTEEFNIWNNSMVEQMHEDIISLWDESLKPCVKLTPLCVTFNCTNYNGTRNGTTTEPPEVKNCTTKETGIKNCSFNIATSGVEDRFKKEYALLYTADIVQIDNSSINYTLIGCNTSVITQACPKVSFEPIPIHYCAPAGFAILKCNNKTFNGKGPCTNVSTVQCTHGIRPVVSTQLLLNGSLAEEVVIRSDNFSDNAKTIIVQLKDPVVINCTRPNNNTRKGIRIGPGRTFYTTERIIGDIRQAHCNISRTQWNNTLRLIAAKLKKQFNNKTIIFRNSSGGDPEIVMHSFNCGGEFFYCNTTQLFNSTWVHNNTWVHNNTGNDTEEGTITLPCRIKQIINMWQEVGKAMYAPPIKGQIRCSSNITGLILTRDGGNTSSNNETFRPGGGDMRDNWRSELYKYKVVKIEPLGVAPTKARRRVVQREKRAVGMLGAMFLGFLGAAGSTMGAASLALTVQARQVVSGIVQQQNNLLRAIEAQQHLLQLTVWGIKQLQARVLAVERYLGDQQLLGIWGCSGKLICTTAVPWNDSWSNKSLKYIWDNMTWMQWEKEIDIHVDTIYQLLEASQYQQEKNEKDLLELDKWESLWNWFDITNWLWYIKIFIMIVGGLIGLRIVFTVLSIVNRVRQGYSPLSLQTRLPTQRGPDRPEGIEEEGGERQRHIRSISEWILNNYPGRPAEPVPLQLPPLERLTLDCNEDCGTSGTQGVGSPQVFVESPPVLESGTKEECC

For `COc1ccc(/C=N/NC(=O)c2[nH]c3ccc(Br)cc3c2-c2ccccc2)c(C(=O)O)c1OC`, the half-maximal inhibitory concentration (IC50) (as a rule, the concentration that gives 50% inhibition) is 19.4 µM (active). The result for `CCCOc1ccc(C2C(C(=O)c3cc4ccccc4o3)=C(O)C(=O)N2c2cc(C)on2)cc1` (configuration not stated) reads 16.5 µM (active).
